# Bridge positions count the residues as written; N and C are the ends. Peptide text beside a SMILES is read from it.
# Key:
# Assay type in all cases: cell-based
# hNaV1.7 = molecular target: T1, hNaV1.7 (Homo sapiens, UniProt Q15858); assay: Automated whole-cell patch-clamp (QPatch 16X), hNaV1.7; details: for IC50: HEK293 cells expressing hNaV1.7 + β1 subunit, QPatch 16X, holding −80 mV, step to 0 mV, peptide incubated 2 min, 0.1% BSA, mean, SEM and n (3-9)
# T1 construct: host or cells: HEK293
# Experimental: (§1) Human embryonic kidney 293 (HEK293) cells stably expressing recombinant hNaV1.2, hNaV1.3 and hNaV1.7 and the β1 auxiliary subunit (Scottish Biomedical Drug Discovery, Glasgow, UK) were cultured in Minimal Essential medium (MEM) (Sigma-Aldrich, MO, United States) supplemented with 10% v/v FBS-New Zealand origin (Assay Matrix), 2 mM L-glutamine and selection antibiotics as per manufacturer’s recommendation. The HEK293 cells heterologously expressing mNaV1.7 and F813G-mNaV1.7 were generously provided by Prof Irina Vetter and were cultured in Minimal Essential medium (MEM) (Sigma-Aldrich, MO, United States) supplemented with 10% v/v FBS-New Zealand origin (Assay Matrix), 2 mM L-glutamine and hygromycin 100 μg/mL.
# (§2) NaV channel currents from HEK293 cells stably expressing NaV subtypes and the β1 auxiliary subunit were recorded using an automated whole-cell patch clamp system QPatch 16X (Sophion Bioscience A/S, Ballerup, Denmark). As per the manufacturer’s guidelines, the cells were cultured for 48 h to achieve ∼80% confluency, detached using Detachin (Genlantis) and resuspended to 5 × 10^6 cells/mL in serum free media [CHO-cell SFM (Life Technologies), 25 mM HEPES and 100 U/mL penicillin/streptomycin]. The extracellular solution comprised (in mM) 1 CaCl2, 1 MgCl2, 5 HEPES, 3 KCl, 140 NaCl and 20 TEA-Cl, with the pH adjusted to 7.3 with NaOH. The intracellular solution comprised (in mM) 140 CsF, 1 EGTA, 5 CsOH, 10 HEPES and 10 NaCl, with the pH adjusted to 7.3 with CsOH. The osmolarity of both solutions were adjusted to 320 mOsm with sucrose. Compounds were prepared in extracellular solution containing 0.1% bovine serum albumin (Sigma-Aldrich). To obtain the dose-response curves, cells were maintained at a holding potential −80 mV and Na^+ currents were elicited by […] voltage steps to 0 mV from a −120 mV conditioning pulse applied for […]. Increasing concentrations of the peptide were incubated with the cells at the holding potential for 2 min before the voltage protocol was applied.
# (§3) The experimental data were analysed using QPatch Assay software v5.6.4 and GraphPad Prism 7.0 using a four-parameter Hill equation [Y = Bottom + (Top—Bottom)/(1 + 10^(Log IC50—X)* Hillslope)] to fit concentration response curves by non-linear regression analysis and Student’s t-test. Data are presented as means ± standard error of mean (SEM) with number of independent experiments stated and p < 0.05 is considered statistically significant. Statistically insignificant shift in the activity is denoted by “little” while small but statistically significant shift in the activity is denoted by “slight” throughout the manuscript.
# hNaV1.3 = molecular target: T2, hNaV1.3 (Homo sapiens, UniProt Q9NY46); assay: Automated whole-cell patch-clamp (QPatch 16X), hNaV1.3; details: HEK293 cells expressing hNaV1.3 + β1 subunit; QPatch 16X; holding −80 mV, step to 0 mV; peptide incubated 2 min; 0.1% BSA; mean, SEM and n (3-12)
# T2 construct: host or cells: HEK293
# Experimental: as §1, §2, §3
# hNaV1.2 = molecular target: T3, hNaV1.2 (Homo sapiens, UniProt Q99250); assay: Automated whole-cell patch-clamp (QPatch 16X), hNaV1.2; details: for IC50: HEK293 cells expressing hNaV1.2 + β1 subunit, QPatch 16X, holding −80 mV, step to 0 mV, peptide incubated 2 min, 0.1% BSA, mean, SEM and n (2-7)
# T3 construct: host or cells: HEK293
# Experimental: as §1, §2, §3
# T2 sequence (Q9NY46 whole entry): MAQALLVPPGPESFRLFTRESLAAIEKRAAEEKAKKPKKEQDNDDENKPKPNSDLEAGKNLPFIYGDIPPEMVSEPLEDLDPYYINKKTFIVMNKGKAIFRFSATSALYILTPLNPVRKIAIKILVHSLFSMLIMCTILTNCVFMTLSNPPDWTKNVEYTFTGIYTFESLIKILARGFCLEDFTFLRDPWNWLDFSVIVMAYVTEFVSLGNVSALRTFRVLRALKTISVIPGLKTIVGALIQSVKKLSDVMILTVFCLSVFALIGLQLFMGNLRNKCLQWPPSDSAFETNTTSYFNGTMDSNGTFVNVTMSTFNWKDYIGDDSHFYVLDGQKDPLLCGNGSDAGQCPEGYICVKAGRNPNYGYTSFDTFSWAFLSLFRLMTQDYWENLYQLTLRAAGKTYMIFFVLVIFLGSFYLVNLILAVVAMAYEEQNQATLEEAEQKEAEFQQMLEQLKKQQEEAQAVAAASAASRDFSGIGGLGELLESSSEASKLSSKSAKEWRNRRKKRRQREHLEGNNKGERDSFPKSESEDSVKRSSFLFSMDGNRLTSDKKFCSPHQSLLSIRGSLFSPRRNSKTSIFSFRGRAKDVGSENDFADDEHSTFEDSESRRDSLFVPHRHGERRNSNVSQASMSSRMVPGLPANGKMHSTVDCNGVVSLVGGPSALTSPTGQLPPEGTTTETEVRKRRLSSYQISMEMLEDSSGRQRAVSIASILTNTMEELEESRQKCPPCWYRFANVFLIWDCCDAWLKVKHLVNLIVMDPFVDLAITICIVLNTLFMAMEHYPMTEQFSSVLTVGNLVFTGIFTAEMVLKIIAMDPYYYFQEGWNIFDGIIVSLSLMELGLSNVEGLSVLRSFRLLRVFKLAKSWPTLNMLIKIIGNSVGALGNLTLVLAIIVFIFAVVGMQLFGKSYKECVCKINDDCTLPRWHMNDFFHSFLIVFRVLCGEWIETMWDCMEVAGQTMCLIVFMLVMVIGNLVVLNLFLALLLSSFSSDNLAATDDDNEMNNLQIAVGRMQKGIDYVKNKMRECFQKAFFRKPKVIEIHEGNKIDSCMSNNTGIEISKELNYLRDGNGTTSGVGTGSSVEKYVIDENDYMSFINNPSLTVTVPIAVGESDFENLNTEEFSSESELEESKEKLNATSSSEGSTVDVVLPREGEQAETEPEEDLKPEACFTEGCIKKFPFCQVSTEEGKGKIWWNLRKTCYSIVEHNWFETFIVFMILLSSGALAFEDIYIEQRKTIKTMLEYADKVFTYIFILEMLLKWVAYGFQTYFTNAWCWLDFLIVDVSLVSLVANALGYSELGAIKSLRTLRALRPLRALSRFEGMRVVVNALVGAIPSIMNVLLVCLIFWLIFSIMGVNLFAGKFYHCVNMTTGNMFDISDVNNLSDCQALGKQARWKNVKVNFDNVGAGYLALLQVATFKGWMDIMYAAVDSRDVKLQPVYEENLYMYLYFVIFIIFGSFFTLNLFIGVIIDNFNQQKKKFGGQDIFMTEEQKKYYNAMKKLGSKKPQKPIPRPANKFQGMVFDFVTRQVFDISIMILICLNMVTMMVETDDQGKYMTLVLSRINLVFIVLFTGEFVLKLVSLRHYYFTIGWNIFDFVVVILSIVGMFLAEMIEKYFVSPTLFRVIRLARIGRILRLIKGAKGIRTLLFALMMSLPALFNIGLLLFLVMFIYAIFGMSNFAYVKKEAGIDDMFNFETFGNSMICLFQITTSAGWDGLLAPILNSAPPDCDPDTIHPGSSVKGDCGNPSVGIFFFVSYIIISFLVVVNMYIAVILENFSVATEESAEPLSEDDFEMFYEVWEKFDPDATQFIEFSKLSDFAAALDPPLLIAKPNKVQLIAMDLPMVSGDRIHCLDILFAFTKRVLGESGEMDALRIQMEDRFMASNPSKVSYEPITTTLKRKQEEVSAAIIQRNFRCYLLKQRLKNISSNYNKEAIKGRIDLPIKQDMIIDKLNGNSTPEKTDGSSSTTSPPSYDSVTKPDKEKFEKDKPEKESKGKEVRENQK
# T2 sequence (Q07699 19-218, further chain): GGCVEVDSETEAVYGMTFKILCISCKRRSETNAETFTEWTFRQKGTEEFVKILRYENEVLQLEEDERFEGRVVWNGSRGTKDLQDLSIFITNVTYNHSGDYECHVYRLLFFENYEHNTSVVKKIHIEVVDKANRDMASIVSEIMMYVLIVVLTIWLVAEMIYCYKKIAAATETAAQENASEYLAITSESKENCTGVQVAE
# T1 sequence (Q15858 whole entry): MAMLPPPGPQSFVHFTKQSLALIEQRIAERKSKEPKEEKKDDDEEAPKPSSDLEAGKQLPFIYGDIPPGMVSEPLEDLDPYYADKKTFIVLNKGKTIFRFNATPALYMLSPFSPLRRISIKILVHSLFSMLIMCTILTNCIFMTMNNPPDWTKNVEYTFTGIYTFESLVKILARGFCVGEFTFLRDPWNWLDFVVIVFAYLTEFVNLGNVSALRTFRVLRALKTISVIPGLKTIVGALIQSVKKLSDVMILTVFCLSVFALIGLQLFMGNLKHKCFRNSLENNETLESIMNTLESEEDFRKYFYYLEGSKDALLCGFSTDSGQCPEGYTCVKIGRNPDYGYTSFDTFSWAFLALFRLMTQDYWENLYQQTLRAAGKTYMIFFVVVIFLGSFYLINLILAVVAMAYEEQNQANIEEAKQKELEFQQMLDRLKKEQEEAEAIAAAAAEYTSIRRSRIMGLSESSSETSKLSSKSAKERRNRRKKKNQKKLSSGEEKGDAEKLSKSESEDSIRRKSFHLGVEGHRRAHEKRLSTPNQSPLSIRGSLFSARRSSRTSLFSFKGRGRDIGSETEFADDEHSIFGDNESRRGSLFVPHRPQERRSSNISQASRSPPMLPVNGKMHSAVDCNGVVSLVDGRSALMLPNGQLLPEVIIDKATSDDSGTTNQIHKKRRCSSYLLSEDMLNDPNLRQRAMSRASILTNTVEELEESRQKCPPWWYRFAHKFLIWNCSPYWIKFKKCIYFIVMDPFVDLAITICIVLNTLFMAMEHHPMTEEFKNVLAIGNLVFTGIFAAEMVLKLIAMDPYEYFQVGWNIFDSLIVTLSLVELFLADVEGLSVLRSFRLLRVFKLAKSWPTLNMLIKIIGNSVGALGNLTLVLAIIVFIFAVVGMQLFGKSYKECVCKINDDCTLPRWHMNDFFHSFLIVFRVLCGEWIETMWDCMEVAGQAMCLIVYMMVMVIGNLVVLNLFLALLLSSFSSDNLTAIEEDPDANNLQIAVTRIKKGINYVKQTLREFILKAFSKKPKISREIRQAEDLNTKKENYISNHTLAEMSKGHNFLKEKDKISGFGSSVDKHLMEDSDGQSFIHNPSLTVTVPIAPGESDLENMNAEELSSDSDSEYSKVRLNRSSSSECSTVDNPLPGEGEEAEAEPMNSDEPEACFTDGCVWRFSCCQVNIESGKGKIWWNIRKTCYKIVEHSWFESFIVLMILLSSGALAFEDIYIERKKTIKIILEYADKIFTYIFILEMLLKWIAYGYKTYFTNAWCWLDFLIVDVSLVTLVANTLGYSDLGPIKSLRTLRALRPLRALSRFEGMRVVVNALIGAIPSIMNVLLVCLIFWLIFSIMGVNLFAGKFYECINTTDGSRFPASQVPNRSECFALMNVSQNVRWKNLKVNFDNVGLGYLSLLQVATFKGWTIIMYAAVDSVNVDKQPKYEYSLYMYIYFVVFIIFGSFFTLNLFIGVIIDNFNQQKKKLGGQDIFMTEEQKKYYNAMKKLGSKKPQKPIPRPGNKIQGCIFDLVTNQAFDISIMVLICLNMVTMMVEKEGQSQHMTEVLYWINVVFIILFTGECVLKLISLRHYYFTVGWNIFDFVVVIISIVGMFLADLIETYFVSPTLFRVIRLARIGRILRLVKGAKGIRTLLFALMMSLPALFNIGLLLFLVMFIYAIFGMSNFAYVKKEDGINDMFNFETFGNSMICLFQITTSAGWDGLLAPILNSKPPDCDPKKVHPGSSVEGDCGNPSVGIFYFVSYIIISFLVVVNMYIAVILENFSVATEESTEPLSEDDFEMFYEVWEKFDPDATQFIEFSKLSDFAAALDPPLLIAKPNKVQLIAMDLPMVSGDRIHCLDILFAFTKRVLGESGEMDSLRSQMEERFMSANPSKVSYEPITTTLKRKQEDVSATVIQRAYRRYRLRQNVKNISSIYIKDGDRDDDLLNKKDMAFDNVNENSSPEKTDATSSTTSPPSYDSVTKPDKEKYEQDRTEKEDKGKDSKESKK
# T1 sequence (Q07699 19-218, further chain): as the sequence (Q07699 19-218, further chain) above
SMILES,IC50 (hNaV1.7) [nM],IC50 (hNaV1.3) [nM],IC50 (hNaV1.2) [nM],Loss (reduction) in potency vs rSsp1a at hNaV1.7 (hNaV1.7; relative to wild type rSsp1a) [fold],Loss (reduction) in potency vs rSsp1a at hNaV1.2 (hNaV1.2; relative to wild type rSsp1a) [fold]
CC(C)C[C@H](NC(=O)[C@H](CC(=O)O)NC(=O)[C@H](Cc1ccc(O)cc1)NC(=O)[C@H](CCCNC(=N)N)NC(=O)[C@@H]1CSSC[C@@H]2NC(=O)[C@H](CCCCN)NC(=O)[C@H](CC(N)=O)NC(=O)[C@H](CC(N)=O)NC(=O)[C@H](CC(N)=O)NC(=O)[C@@H]3CCCN3C(=O)[C@H](CC(=O)O)NC(=O)[C@@H]3CSSC[C@H](NC(=O)[C@H](C(C)C)NC(=O)[C@H](Cc4ccc(O)cc4)NC(=O)CNC(=O)[C@H](CCC(=O)O)NC(=O)[C@H](CSSC[C@H](NC(=O)[C@H](CC(=O)O)NC(=O)CN)C(=O)N[C@@H](CC(C)C)C(=O)N[C@@H](CCC(N)=O)C(=O)N[C@@H](Cc4c[nH]c5ccccc45)C(=O)N[C@@H](Cc4ccccc4)C(=O)N[C@@H](CO)C(=O)NCC(=O)N3)NC2=O)C(=O)N[C@@H](Cc2c[nH]cn2)C(=O)N[C@@H](Cc2c[nH]c3ccccc23)C(=O)N[C@@H](CCCCN)C(=O)N[C@@H](Cc2ccc(O)cc2)C(=O)N2CCC[C@H]2C(=O)N[C@@H](Cc2c[nH]c3ccccc23)C(=O)N1)C(=O)O [G4Q],606,999,503,–,–
CC(C)C[C@H](NC(=O)[C@H](CC(=O)O)NC(=O)[C@H](Cc1ccc(O)cc1)NC(=O)[C@H](CCCNC(=N)N)NC(=O)[C@@H]1CSSC[C@@H]2NC(=O)[C@H](CCCCN)NC(=O)[C@H](CC(N)=O)NC(=O)[C@H](CC(N)=O)NC(=O)[C@H](CC(N)=O)NC(=O)[C@@H]3CCCN3C(=O)[C@H](CC(=O)O)NC(=O)[C@@H]3CSSC[C@H](NC(=O)[C@H](C(C)C)NC(=O)[C@H](Cc4ccc(O)cc4)NC(=O)CNC(=O)[C@H](CCC(=O)O)NC(=O)[C@H](CSSC[C@H](NC(=O)[C@H](CC(=O)O)NC(=O)CN)C(=O)N[C@@H](CC(C)C)C(=O)N[C@@H](CCCNC(=N)N)C(=O)N[C@@H](Cc4c[nH]c5ccccc45)C(=O)N[C@@H](Cc4ccccc4)C(=O)N[C@@H](CO)C(=O)NCC(=O)N3)NC2=O)C(=O)N[C@@H](Cc2c[nH]cn2)C(=O)N[C@@H](Cc2c[nH]c3ccccc23)C(=O)N[C@@H](CCCCN)C(=O)N[C@@H](Cc2ccc(O)cc2)C(=O)N2CCC[C@H]2C(=O)N[C@@H](Cc2c[nH]c3ccccc23)C(=O)N1)C(=O)O [G4R],201,409,193,–,–
CC(C)C[C@H](NC(=O)[C@H](CC(=O)O)NC(=O)[C@H](Cc1ccc(O)cc1)NC(=O)[C@H](CCCNC(=N)N)NC(=O)[C@@H]1CSSC[C@@H]2NC(=O)[C@H](CCCCN)NC(=O)[C@H](CC(N)=O)NC(=O)[C@H](CC(N)=O)NC(=O)[C@H](CC(N)=O)NC(=O)[C@@H]3CCCN3C(=O)[C@H](CC(=O)O)NC(=O)[C@@H]3CSSC[C@H](NC(=O)[C@H](C(C)C)NC(=O)[C@H](Cc4ccc(O)cc4)NC(=O)CNC(=O)[C@H](CCC(=O)O)NC(=O)[C@H](CSSC[C@H](NC(=O)[C@H](CC(=O)O)NC(=O)CN)C(=O)N[C@@H](CC(C)C)C(=O)NCC(=O)N[C@@H](Cc4c[nH]c5ccccc45)C(=O)N[C@@H](Cc4ccccc4)C(=O)N[C@@H](CO)C(=O)N[C@@H](CCCNC(=N)N)C(=O)N3)NC2=O)C(=O)N[C@@H](Cc2c[nH]cn2)C(=O)N[C@@H](Cc2c[nH]c3ccccc23)C(=O)N[C@@H](CCCCN)C(=O)N[C@@H](Cc2ccc(O)cc2)C(=O)N2CCC[C@H]2C(=O)N[C@@H](Cc2c[nH]c3ccccc23)C(=O)N1)C(=O)O [G8R],96,415,117,–,–
"CC(C)C[C@H](NC(=O)[C@H](CC(=O)O)NC(=O)[C@H](Cc1ccc(O)cc1)NC(=O)[C@H](CCCNC(=N)N)NC(=O)[C@@H]1CSSC[C@@H]2NC(=O)[C@H](CCCCN)NC(=O)[C@H](CC(N)=O)NC(=O)[C@H](CC(N)=O)NC(=O)[C@H](CC(N)=O)NC(=O)[C@@H]3CCCN3C(=O)[C@H](CC(=O)O)NC(=O)[C@@H]3CSSC[C@H](NC(=O)[C@H](C(C)C)NC(=O)[C@H](Cc4ccc(O)cc4)NC(=O)CNC(=O)[C@H](CCC(=O)O)NC(=O)[C@H](CSSC[C@H](NC(=O)[C@H](CC(=O)O)NC(=O)CN)C(=O)N[C@@H](CC(C)C)C(=O)NCC(=O)N[C@@H](Cc4c[nH]c5ccccc45)C(=O)N[C@@H](Cc4ccccc4)C(=O)N[C@@H](CO)C(=O)NCC(=O)N3)NC2=O)C(=O)N2CCC[C@H]2C(=O)N[C@@H](Cc2c[nH]c3ccccc23)C(=O)N[C@@H](CCCCN)C(=O)N[C@@H](Cc2ccc(O)cc2)C(=O)N2CCC[C@H]2C(=O)N[C@@H](Cc2c[nH]c3ccccc23)C(=O)N1)C(=O)O [H23P] (H-GDCLGWFSGCDPNNNKCCEGYVCPWKYPWCRYDL-OH; disulfide 3-18, 10-23, 17-30 (inferred); N-terminus and C-terminus assumed)",> 3000,> 3000,> 3000,–,–
CC(C)C[C@H](NC(=O)[C@H](CC(=O)O)NC(=O)[C@H](Cc1ccc(O)cc1)NC(=O)[C@H](CCCNC(=N)N)NC(=O)[C@@H]1CSSC[C@@H]2NC(=O)[C@H](CCCCN)NC(=O)[C@H](CC(N)=O)NC(=O)[C@H](CC(N)=O)NC(=O)[C@H](CC(N)=O)NC(=O)[C@@H]3CCCN3C(=O)[C@H](CC(=O)O)NC(=O)[C@@H]3CSSC[C@H](NC(=O)[C@H](C(C)C)NC(=O)[C@H](Cc4ccc(O)cc4)NC(=O)CNC(=O)[C@H](CCC(=O)O)NC(=O)[C@H](CSSC[C@H](NC(=O)[C@H](CC(=O)O)NC(=O)CN)C(=O)N[C@@H](CC(C)C)C(=O)NCC(=O)N[C@@H](Cc4c[nH]c5ccccc45)C(=O)N[C@@H](Cc4ccccc4)C(=O)N[C@@H](CO)C(=O)NCC(=O)N3)NC2=O)C(=O)N[C@@H](CO)C(=O)N[C@@H](Cc2c[nH]c3ccccc23)C(=O)N[C@@H](CCCCN)C(=O)N[C@@H](Cc2ccc(O)cc2)C(=O)N2CCC[C@H]2C(=O)N[C@@H](Cc2c[nH]c3ccccc23)C(=O)N1)C(=O)O [H23S],198,679,156,–,–
"CC(C)C[C@H](NC(=O)[C@H](CC(=O)O)NC(=O)[C@H](Cc1ccc(O)cc1)NC(=O)[C@H](CCCNC(=N)N)NC(=O)[C@@H]1CSSC[C@@H]2NC(=O)[C@H](CCCCN)NC(=O)[C@H](CC(N)=O)NC(=O)[C@H](CC(N)=O)NC(=O)[C@H](CC(N)=O)NC(=O)[C@@H]3CCCN3C(=O)[C@H](CC(=O)O)NC(=O)[C@@H]3CSSC[C@H](NC(=O)[C@H](C(C)C)NC(=O)[C@H](Cc4ccc(O)cc4)NC(=O)CNC(=O)[C@H](CCC(=O)O)NC(=O)[C@H](CSSC[C@H](NC(=O)[C@H](CC(=O)O)NC(=O)CN)C(=O)N[C@@H](CC(C)C)C(=O)NCC(=O)N[C@@H](Cc4c[nH]c5ccccc45)C(=O)N[C@@H](Cc4ccccc4)C(=O)N[C@@H](CO)C(=O)NCC(=O)N3)NC2=O)C(=O)N[C@@H](Cc2c[nH]cn2)C(=O)N[C@@H](Cc2c[nH]c3ccccc23)C(=O)N[C@@H](C)C(=O)N[C@@H](Cc2ccc(O)cc2)C(=O)N2CCC[C@H]2C(=O)N[C@@H](Cc2c[nH]c3ccccc23)C(=O)N1)C(=O)O [K25A] (H-GDCLGWFSGCDPNNNKCCEGYVCHWAYPWCRYDL-OH; disulfide 3-18, 10-23, 17-30 (inferred); N-terminus and C-terminus assumed)",> 1000,> 1000,> 1000,≥ 10,≥ 10

# — paper PMC10682951, “Structure-function and rational design of a spider toxin Ssp1a at human voltage-gated sodium channel subtypes” (Frontiers in Pharmacology, 2023)
